These compounds were tested against T1, human SLC6A19 and TMEM27 (Homo sapiens, UniProt Q695T7) (assay: Radiolabelled (3H) leucine uptake in CHO cells with doxycycline-inducible expression of human SLC6A19 and TMEM27 (Example B-1)). Conditions: CHO cells with doxycycline-inducible expression of human SLC6A19 and TMEM27, read-out: SLC6A19_Radioligand Uptake Assay IC50.
T1 construct: expressed in transfected cells
T1 sequence (Q695T7 1-634): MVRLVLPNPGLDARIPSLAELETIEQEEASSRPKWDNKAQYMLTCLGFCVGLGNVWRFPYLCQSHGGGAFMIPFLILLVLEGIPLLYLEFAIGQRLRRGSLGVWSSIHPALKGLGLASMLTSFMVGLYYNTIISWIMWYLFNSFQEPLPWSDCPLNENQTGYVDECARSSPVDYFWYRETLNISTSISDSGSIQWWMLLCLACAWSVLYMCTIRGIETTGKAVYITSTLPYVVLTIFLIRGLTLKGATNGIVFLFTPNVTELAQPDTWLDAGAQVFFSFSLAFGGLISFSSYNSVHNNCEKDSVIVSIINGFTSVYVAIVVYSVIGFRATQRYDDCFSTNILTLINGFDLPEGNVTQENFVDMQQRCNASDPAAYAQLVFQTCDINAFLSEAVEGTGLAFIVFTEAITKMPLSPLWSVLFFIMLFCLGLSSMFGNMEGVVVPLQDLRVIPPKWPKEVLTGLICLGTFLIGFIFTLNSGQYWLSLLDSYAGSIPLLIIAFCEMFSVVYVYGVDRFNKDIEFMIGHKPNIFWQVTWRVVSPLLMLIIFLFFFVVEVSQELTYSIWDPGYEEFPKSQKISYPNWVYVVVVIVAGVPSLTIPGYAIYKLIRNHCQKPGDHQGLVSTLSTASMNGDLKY
T1 sequence (Q9HBJ8 15-222 partner): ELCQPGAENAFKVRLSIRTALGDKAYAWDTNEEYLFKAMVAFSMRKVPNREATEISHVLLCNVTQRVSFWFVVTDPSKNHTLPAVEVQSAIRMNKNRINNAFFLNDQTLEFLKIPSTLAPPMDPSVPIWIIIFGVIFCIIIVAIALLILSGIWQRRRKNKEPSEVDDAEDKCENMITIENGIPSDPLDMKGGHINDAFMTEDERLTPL
Format: cell-based
Method: The flasks were then incubated (humidified, 37° C. with 5% CO2) for 2 minutes. After incubation, 10 mL of pre-warmed cell culture media was added to each flask. The cell suspension was collected and centrifuged for 5 minutes at 200×g. The supernatant was aspirated and the pellet was resuspended in 5 mL pre-warmed cell culture media. The resuspended cells were counted using the Countess Cell Counting Chamber (Invitrogen) and the cell concentration of the suspension was readjusted to 1 million live cells/mL using pre-warmed cell culture media. […] Assay plates were then incubated (humidified, 37° C. with 5% CO2) for 18 hours. After incubation, the media was aspirated and the wells were washed 4 times with pre-warmed HBSS (Sigma-Aldrich, H8264-1L) using an Apricot S-Pipette S2 (Apricot Designs), such that 5 uL/well HBSS was remaining at the end of each wash. […] At this step, the final in-well DMSO concentration in the assay plate is 0.5%. All compounds were plated in a duplicate 8-point dilution series that consisted of 3-fold dilutions. The plates were incubated with compound (humidified, 37° C. with 5% CO2) for 1 hour. […] The plates were then incubated (humidified, 37° C. with 5% CO2) on a plate shaker at 200 rpm for 2 hours. After incubation, the plates were removed from the shaker and kept at room temperature for 15 minutes. Liquid scintillation analysis was performed using the MicroBeta2 Microplate Counter (Perkin Elmer). Activity (%) was derived by normalizing the average of positive control compound treated wells to 0% and the average of DMSO (negative control) wells to 100%. Collaborative Drug Discovery software was used for graphing data.

Point of comparison: Cc1cc(COc2cc3[nH]c(CNC(=O)C4(F)CC4)cc3cc2F)on1 [Compound 572, 1-fluoro-N-((5-fluoro-6-((3-methylisoxazol-5-yl)methoxy)-1H-indol-2-yl)methyl)cyclopropane-1-carboxamide], IC50 113 nM. Against it:
- Cc1cc(COc2cc3[nH]c(CNC(=O)[C@@H]4C[C@@H](F)CN4)cc3cc2Cl)on1 [Compound 665, (2S,4R)—N-((5-chloro-6-((3-methylisoxazol-5-yl)methoxy)-1H-indol-2-yl)methyl)-4-fluoropyrrolidine-2-carboxamide] — 14-fold higher, 1560 nM
- CC1(C(=O)NCc2cc3cc(CCC#N)c(OCc4cscn4)cc3[nH]2)CC1 [Compound 641, N-((5-(2-cyanoethyl)-6-(thiazol-4-ylmethoxy)-1H-indol-2-yl)methyl)-1-methylcyclopropane-1-carboxamide] — 19-fold higher, 2100 nM
- Cc1cc(COc2cc3[nH]c(CNC(=O)Cn4ccnn4)cc3cc2Cl)on1 [Compound 520, N-((5-chloro-6-((3-methylisoxazol-5-yl)methoxy)-1H-indol-2-yl)methyl)-2-(1H-1,2,3-triazol-1-yl)acetamide] — 60-fold higher, 6730 nM
- Cc1cc(COc2cc3[nH]c(CNC(=O)NCC(F)F)cc3cc2Cl)on1 [Compound 374, 1-((5-chloro-6-((3-methylisoxazol-5-yl)methoxy)-1H-indol-2-yl)methyl)-3-(2,2-difluoroethyl)urea] — 3.6-fold higher, 412 nM
- CO[C@H](C)C(=O)NCc1cc2cc(Cl)c(OCc3cc(C)no3)cc2[nH]1 [Compound 314, (R)-N-((5-chloro-6-((3-methylisoxazol-5-yl)methoxy)-1H-indol-2-yl)methyl)-2-methoxypropanamide] — 3.3-fold higher, 375 nM
- CC1(C(=O)NCc2cc3ccc(OCCC45CC(C4)C5)cc3[nH]2)CC1 [Compound 193, N-((6-(2-(bicyclo[1.1.1]pentan-1-yl)ethoxy)-1H-indol-2-yl)methyl)-1-methylcyclopropane-1-carboxamide] — 87-fold higher, 9880 nM
- Cc1cc(COc2cc3[nH]c(CNC(=O)C[C@H](C)O)cc3cc2Cl)on1 [Compound 286, (S)-N-((5-chloro-6-((3-methylisoxazol-5-yl)methoxy)-1H-indol-2-yl)methyl)-3-hydroxybutanamide] — 8.1-fold higher, 910 nM
- O=C(NCc1cc2cc(Cl)c(OCc3cscn3)cc2[nH]1)[C@H]1CCCO1 [Compound 266, (R)-N-((5-chloro-6-(thiazol-4-ylmethoxy)-1H-indol-2-yl)methyl)tetrahydrofuran-2-carboxamide] — within 1.5-fold, 142 nM
- CN1CC(C(=O)NCc2cc3cc(Cl)c(OCc4cscn4)cc3[nH]2)C1=O (racemic) [Compound 546, (R)-N-((5-chloro-6-(thiazol-4-ylmethoxy)-1H-indol-2-yl)methyl)-1-methyl-2-oxoazetidine-3-carboxamide and (S)-N-((5-chloro-6-(thiazol-4-ylmethoxy)-1H-indol-2-yl)methyl)-1-methyl-2-oxoazetidine-3-carboxamide] — 40-fold higher, 4480 nM
- Cc1cc(CC(C)c2ccc3cc(CNC(=O)C4(C)CC4)[nH]c3c2)no1 (centres unmarked) [Compound 153, 1-methyl-N-((6-(1-(5-methylisoxazol-3-yl)propan-2-yl)-1H-indol-2-yl)methyl) cyclopropane-1-carboxamide] — 17-fold higher, 1960 nM
- CC(NC(=O)C1(C)CC1)c1cc2cc(Cl)c(OCc3cscn3)cc2[nH]1 (racemic) [Compound 347, (S)-N-(1-(5-chloro-6-(thiazol-4-ylmethoxy)-1H-indol-2-yl)ethyl)-1-methylcyclopropane-1-carboxamide and (R)-N-(1-(5-chloro-6-(thiazol-4-ylmethoxy)-1H-indol-2-yl)ethyl)-1-methylcyclopropane-1-carboxamide] — 9.3-fold higher, 1050 nM
- CC1(C(=O)NCc2cc3cc(OC(F)F)c(OCc4cscn4)cc3[nH]2)CC1 [Compound 604, N-((5-(difluoromethoxy)-6-(thiazol-4-ylmethoxy)-1H-indol-2-yl)methyl)-1-methylcyclopropane-1-carboxamide] — 3.5-fold higher, 391 nM
- O=C(NCc1cc2cc(Cl)c(OCc3cscn3)cc2[nH]1)N1CCC(F)C1 (centres unmarked) [Compound 93, N-((5-chloro-6-(thiazol-4-ylmethoxy)-1H-indol-2-yl)methyl)-3-fluoropyrrolidine-1-carboxamide] — 1.6-fold higher, 177 nM
- COCCOc1cc2[nH]c(CNC(=O)C3(C)CC3)cc2cc1Cl [Compound 333, N-((5-chloro-6-(2-methoxyethoxy)-1H-indol-2-yl)methyl)-1-methylcyclopropane-1-carboxamide] — 1.8-fold higher, 206 nM
- CC1(C(=O)NCc2cc3cc(CC#N)c(OCc4cscn4)cc3[nH]2)CC1 [Compound 643, N-((5-(cyanomethyl)-6-(thiazol-4-ylmethoxy)-1H-indol-2-yl)methyl)-1-methylcyclopropane-1-carboxamide] — 5.6-fold higher, 631 nM
- CC1CCN(C(=O)NCc2cc3cc(Cl)c(OCc4ccon4)cc3[nH]2)C1 (centres unmarked) [Compound 87, N-((5-chloro-6-(isoxazol-3-ylmethoxy)-1H-indol-2-yl)methyl)-3-methylpyrrolidine-1-carboxamide] — 3.2-fold higher, 365 nM
- Cc1cc(COc2cc3[nH]c(CNC(=O)CC4CCO4)cc3cc2Cl)on1 (centres unmarked) [Compound 245, N-((5-chloro-6-((3-methylisoxazol-5-yl)methoxy)-1H-indol-2-yl)methyl)-2-(oxetan-2-yl)acetamide] — 11-fold higher, 1190 nM
- O=C(NCc1cc2c(F)cc(OCc3ccon3)cc2[nH]1)N1CCC1 [Compound 423, N-((4-fluoro-6-(isoxazol-3-ylmethoxy)-1H-indol-2-yl)methyl)azetidine-1-carboxamide] — 1.8-fold higher, 198 nM
- CC1(C(=O)NCc2cc3cc(OC(F)(F)F)c(OCc4ccon4)cc3[nH]2)CC1 [Compound 508, N-((6-(isoxazol-3-ylmethoxy)-5-(trifluoromethoxy)-1H-indol-2-yl)methyl)-1-methylcyclopropane-1-carboxamide] — 2.6-fold higher, 293 nM
- C[C@H]1CCN(C(=O)NCc2cc3cc(F)c(OCc4cscn4)cc3[nH]2)C1 [Compound 388, (S)-N-((5-fluoro-6-(thiazol-4-ylmethoxy)-1H-indol-2-yl)methyl)-3-methylpyrrolidine-1-carboxamide] — 3-fold higher, 336 nM
- C[C@@H]1CCN1C(=O)NCc1cc2cc(Cl)c(OCc3cscn3)cc2[nH]1 [Compound 361, (R)-N-((5-chloro-6-(thiazol-4-ylmethoxy)-1H-indol-2-yl)methyl)-2-methylazetidine-1-carboxamide] — 2.5-fold higher, 286 nM
- Cc1cc(COc2cc3[nH]c(CNC(=O)[C@H]4CCO4)cc3cc2Cl)on1 [Compound 317, (R)-N-((5-chloro-6-((3-methylisoxazol-5-yl)methoxy)-1H-indol-2-yl)methyl)oxetane-2-carboxamide] — within 1.5-fold, 119 nM
- CC(F)C(=O)NCc1cc2cc(Cl)c(OCc3cscn3)cc2[nH]1 (single isomer, unassigned) [Compound 443, (S or R)-N-((5-chloro-6-(thiazol-4-ylmethoxy)-1H-indol-2-yl)methyl)-2-fluoropropanamide] — 1.8-fold lower, 64.2 nM
- CC1(C(=O)NCc2cc3cc(Cl)c(OCc4cscn4)cc3[nH]2)CCC1 [Compound 506, N-((5-chloro-6-(thiazol-4-ylmethoxy)-1H-indol-2-yl)methyl)-1-methylcyclobutane-1-carboxamide] — 2.9-fold higher, 331 nM
- CNCC(=O)NCc1cc2cc(Cl)c(OCc3cc(C)no3)cc2[nH]1 [Compound 615, N-((5-chloro-6-((3-methylisoxazol-5-yl)methoxy)-1H-indol-2-yl)methyl)-2-(methylamino)acetamide] — 18-fold higher, 2070 nM

Source: US20240199546A1, “INHIBITORS OF SOLUTE CARRIER FAMILY 6A MEMBER 19 (SLC6A19) AND METHODS OF USE THEREOF” (Maze Therapeutics, Inc., priority 2022, published 2024)
